Source: US20110034426A1, “Method of Preventing Renal Disease and Treating Symptoms Thereof” (WISCONSIN ALUMNI RESEARCH FOUNDATION, priority 2009, published 2011)
“Also recorded” adds a separate entry of the source.

How the values were obtained:
MRL/MpJ-Fas^lpr/J mice [1] = assay: Proteinuria in MRL/lpr mouse model of systemic lupus erythematosus / lupus nephritis; format: in vivo
Experimental: (§1) Mice. […] Water was given ad libitum.
(§2) Proteinuria measurements. Proteinuria measurements were performed by putting gentle pressure on the bladder for spot urine analysis on a clean surface with a semi-quantitative dipstick (Combistix, Bayer). Mice were determined to have proteinuria when urinary protein output was 100 mg/dL or more. Urine was collected by placing the animals in metabolic cages and performing two-24 hr collections. Total protein was measured using a Bradford assay. (MM Bradford, Analytical Biochemistry 72: 248-254, 1976).

MRL/MpJ-Fas^lpr/J mice [2] = conditions: 300 ng per day 1,25(OH)2D3 in diet, earlier thesis work (Kim 2009); cited from earlier work
MRL/MpJ-Fas^lpr/J mice [3] = assay: Splenomegaly (spleen mass and histology) in MRL/lpr mice; format: in vivo
Text: as §1

[4] = Serum calcium in treated MRL/lpr mice
Experimental: Mice. All mice used in this study were female MRL/MpJ-Fas^lpr/J mice either purchased directly or originally purchased from The Jackson Laboratory and bred in house. All mice involved in each study were age matched to the week of birth. All animal handling was performed according to protocol A1205 approved by the University of Wisconsin—Madison Institutional Animal Care and Use Committee. From weaning, female mice were placed on purified diet containing 0.47% calcium without 2MD until treatment initiation. The purified powder diet was prepared in agar form and administered 3 times a week. 2MD was administered through diet based on 5 g daily diet consumption per mouse. Water was given ad libitum. Blood was taken via retro-orbital bleeding method under isoflurane anesthetic. Serum was isolated from blood samples, frozen and subsequently analyzed with a benchtop clinical chemistry analyzer (Pentra 400, Horiba ABX).

MRL/MpJ-Fas^lpr/J mice [5] = assay: Kidney and heart histology in MRL/lpr mice; format: in vivo
Experimental: as §1
Histology. Half of a kidney was preserved in cold zinc formalin fixative, embedded in paraffin, and sectioned 4 μm thick. Hematoxylin and eosin (H&E) and Masson-Goldner's trichrome were used to study histological differences between kidney samples. Von Kossa staining was performed on whole heart sections (processed as described above) to determine heart calcification. Sectioning and staining was performed by the University of Wisconsin—Madison McArdle Histology Laboratory. Micrographs in the figures were taken by an Olympus BH-2 microscope and Nikon Coolpix 990 digital camera.

[6] = Growth, body weight and clinical signs in treated MRL/lpr mice; format: in vivo
Text: as §1

[7] = system: ⅚ths Nephrectomy Rat Model; assay: ⅚ths Nephrectomy Rat Model (uremic rat); format: in vivo, Sprague-Dawley rats; conditions: uremic rats
Text: ⅚ths Nephrectomy Rat Model. Disease Induction. Weanling, male Sprague-Dawley rats were obtained from Harlan (Madison, Wis.). Following a 10-13 day acclimation period, the animals had two-thirds of one kidney removed. After a week, the other entire kidney was removed. The animals were then switched from a chow diet to a purified rodent diet (Suda et al., Purified Rodent Diet-Diet 11) containing 0.6% Ca and 0.9% phosphorus and fat soluble vitamins A, D, E and K. Water and diet were provided ad libitum.
Animal Husbandry. Animals were housed in suspended, plastic shoe-box style cages with corn cob bedding (prior to surgery) or in stainless steel, wire-bottom cages (approximately one week after surgery). The animal rooms were maintained at a temperature of 68 to 72° F. and a relative humidity of 25 to 75%. The holding rooms were set to provide 12 hours of light per day.
Treatment Groups. Approximately four weeks after the second surgery, animals were assigned to treatment groups (14-15 animals/group) so that each group had the same average PTH level.
Dose Preparation (Vehicle Formulation). The negative control material was prepared by volumetrically measuring ethanol (5%) and Neobee oil, mixing and then placing in storage at 2 to 8° C.
Dose Preparation (2MD Formulation). 2MD formulations (DP001, Sigma Aldrich Fine Chemicals, Madison, Wis.) were prepared by first determining the concentration of an ethanol stock solution using UV spectrophotometry (extinction coefficient=42,000; max=252 nm). The solutions were then volumetrically added to Neobee oil so that there was no more than 5% ethanol in the final solution. If necessary, additional ethanol was added to bring the final ethanol amount to 5%. The solution was mixed and stored at 2 to 8° C.
Dose Administration Method. Both vehicle and 2MD were administered orally to the back of the tongue at 0.5 ml/kg body weight once daily for 8 weeks.
Serum Parathyroid Hormone (PTH) Levels. By “serum PTH levels” we mean the amount of PTH released by the parathyroid gland. PTH is the most important regulator of the body's calcium and phosphorus levels, and is controlled by the level of calcium in the blood. Low blood calcium levels cause increased PTH to be released, while high blood calcium levels inhibit PTH release. Normal values are 10-55 picograms per milliliter (pg/mL). Four weeks after surgery and 4 and 8 weeks after treatment initiation, blood was collected from the tail artery and the concentration of bioactive serum PTH was measured using the rat BioActive Intact PTH ELISA Kit from Immutopics, Inc. (San Clemente, Calif.).
Serum Calcium Analysis. Four weeks following surgery and 4 and 8 weeks after treatment started, blood was collected from the tail artery of each experimental animal. The blood was allowed to coagulate at room temperature and then centrifuged at 3000×g for 15 minutes. The serum was transferred to a polypropylene tube and stored frozen at −20° C. The level of calcium was determined by diluting the serum into 0.1% lanthum chloride and measuring the absorbance on an atomic absorption spectrophotometer (Perkin Elmer Model 3110, Shelton, Conn.).
Phosphorus Assay. Four weeks after surgery and 8 weeks after treatment started, blood was collected from the tail artery of each experimental animal. The blood was allowed to coagulate at room temperature and then centrifuged at 3000×g for 15 minutes. The serum was transferred to a polypropylene tube and stored frozen at −20° C. The level of phosphorus was determined using a clinical analyzer (Pentra 400, Horiba ABX Diagnostics—France; UV method using phosphomolybdate).
Creatinine Assay. Measuring serum creatinine levels is a useful and inexpensive method of evaluating renal dysfunction. Creatinine is a non-protein waste product of […] metabolism by skeletal muscle tissue. Creatinine production is continuous and is proportional to muscle mass. […]

NOD mice = assay: NOD Mouse Model of Type I Diabetic Nephropathy; format: in vivo; conditions: 2MD in the diet
Experimental: as §2
Disease Induction. NOD mice (breeder pairs) were obtained from JAX laboratories (Bar Harbor, Me.). Weanling mice were placed on chow diet (5K52 Lab Diets) or purified diet (Suda et al., Purified Rodent Diet-Diet 11) and allowed to spontaneously develop diabetes (two consecutive measurements of plasma glucose >[…]). Water and diet were provided ad libitum.
Animal Husbandry. Animals were housed in autoclaved, plastic shoe-box style cages with corn cob bedding in groups of 2-4 animals/cage. Once mice were confirmed diabetic, the cages were changed daily. The animal rooms were maintained at a temperature of 68 to 72° F. and a relative humidity of 25 to 75%. […]
Treatment Groups. […] Once animals were determined to be diabetic, animals were assigned to treatment groups (6-12/group) so that each group would have the same average plasma glucose level at enrollment. […]

[8] = daily oral 2MD for 8 weeks vs vehicle
[9] = daily oral 2MD vs vehicle, six weeks after treatment initiation

## C=C1/C(=C\C=C2/CCC[C@]3(C)[C@@H]([C@H](C)CCCC(C)(C)O)CC[C@@H]23)C[C@@H](O)C[C@@H]1O [1,25(OH)2D3, 1α,25-dihydroxyvitamin D3, reference compound]
MRL/MpJ-Fas^lpr/J mice [1]; 300 ng 1,25(OH)2D3 compared with 5 ng 2MD
  prevention of proteinuria: equally effective
MRL/MpJ-Fas^lpr/J mice [2]
  proteinuria: completely prevents proteinuria
MRL/MpJ-Fas^lpr/J mice [3]; 150 ng per day 1,25(OH)2D3
  spleen mass reduction: comparable to that achieved with 5 ng 2MD treatment
MRL/MpJ-Fas^lpr/J mice [3]; 300 ng 1,25(OH)2D3
  spleen histology, compared with 5 ng 2MD: better retention of normal spleen histology
  spleen mass normalized to body weight: statistically significant reduction
  spleen mass, compared with 5 ng 2MD: greater reduction in spleen mass

## C=C1[C@H](O)CC(=C/C=C2\CCC[C@@]3(C)C2CCC3[C@@H](C)CCCC(C)(C)O)C[C@H]1O (stereo partly drawn) [2MD, 2-methylene-19-nor-(20S)-1α,25-(OH)2D3]
MRL/MpJ-Fas^lpr/J mice [1]; 1 ng 2MD per mouse per day in diet, MRL/lpr mice
  reduction in proteinuria incidence: > 60%
MRL/MpJ-Fas^lpr/J mice [1]; 1 ng 2MD, MRL/lpr mice
  mean time of onset of proteinuria: delayed mean time of onset of proteinuria
MRL/MpJ-Fas^lpr/J mice [1]; 5 ng 2MD/mouse/day in diet, MRL/lpr mice, treatment week 10 to 19
  proteinuria (terminal incidence): completely preventing proteinuria; also recorded: completely prevented; also recorded: sufficient to prevent proteinuria
[4]; 1 ng 2MD, MRL/lpr mice, throughout the study
  serum calcium levels: within the physiologically normal range
[4]; 5 ng 2MD per mouse per day, MRL/lpr mice
  serum calcium levels: without dramatically increasing
[4]; 5 ng 2MD, MRL/lpr mice
  serum calcium, highest measured point: 12.4 mg/dL
[4]; 5 ng 2MD, MRL/lpr mice, week 19
  serum calcium at study termination: 10.9 mg/dL
[4]; 2MD treatment (0.5, 1, 5 ng), week 10 to 19, MRL/lpr mice
  serum calcium levels: mildly elevated
MRL/MpJ-Fas^lpr/J mice [5]; 5 ng 2MD vs control
  perivascular infiltration: slight decrease; also recorded: noticeably decreased
  tubulointerstitial infiltration of leukocytes: noticeable decrease; also recorded: substantially less
MRL/MpJ-Fas^lpr/J mice [5]; 5 ng 2MD vs control, kidney histology
  glomerular damage (sclerosis, fibrosis, basement membrane thickening, mesangial proliferation): prevented
MRL/MpJ-Fas^lpr/J mice [5]; 5 ng 2MD vs control, trichrome stain
  interstitial fibrosis (fibrotic staining): significantly less; also recorded: the extent and frequency was much less
MRL/MpJ-Fas^lpr/J mice [5]; 2MD treated MRL/lpr mice
  calcification in kidneys and hearts: lack of evidence of calcification; also recorded: absence of calcification artifacts
[6]; 1 ng 2MD
  hypercalcemia and associated effects including weight loss, compared with 150 ng 1,25(OH)2D3: significantly less
[6]; 5 ng 2MD
  clinical symptoms of hypercalcemia: symptoms of hypercalcemia including unkempt fur and nervousness
  growth / weight loss: adversely affected; also recorded: Weight loss is most severe
[6]; 0.5 and 1 ng 2MD
  growth: slight impact on growth; also recorded: very mild
[6]; any 2MD dose group (0.5, 1, 5 ng)
  lethargy or morbidity: no lethargy or morbidity was observed
[7]; 2MD treatment
  all markers of kidney failure: improved
[7]; [8]
  serum creatinine: lower levels
  serum phosphorus: lower levels
[7]; [9]
  urinary protein excretion: lower levels
  urinary volume: lower levels
[7]; daily oral 2MD
  bone mineral density (total body BMD): improved bone mineral densities; also recorded: increased bone mineral density
  overall survival: increased overall survival
  serum PTH levels: decreased PTH levels; also recorded: lower PTH levels
[7]; dose levels of 2MD giving the positive effects
  total serum calcium: do not significantly raise serum calcium
NOD mice
  overall urine volume output: reduced; also recorded: marked improvement
  total urinary protein excretion: reduced; also recorded: marked improvement
MRL/MpJ-Fas^lpr/J mice [3]; 5 ng 2MD
  spleen histology (white pulp structure): helps retain the sheath-like structure; also recorded: retains some of the sheath structure
MRL/MpJ-Fas^lpr/J mice [3]; 5 ng 2MD vs 0 ng control, p<0.05
  splenomegaly / spleen weight (also normalized to body weight): significantly reduced splenomegaly; also recorded: significantly decreased
